Consider 3 molecules from patent US20130309218A1, “PROCESS FOR PRODUCING AQUEOUS SOLUTION CONTAINING FAT-SOLUBLE SUBSTANCE” (WACKER CHEMIE AG, priority 2011, published 2013).

Holding throughout (assay type): physicochemical
A short description of data set [1]: H-1: solubility of CAPE with NaTC (HPLC). The following applies: 1.4 mg CAPE (as complex or alone) in 5 mL water, sonicated 3 minutes. On the procedure:
As a comparison, water or a solution prepared by dissolving a super solubilizer (1.0% (w/v) NaTC) in water was combined with 1.4 mg of CAPE (in lieu of CAPE-γCD complex) and the mixture was prepared as described above. The resulting mixture was left to stand and filtered and the resulting solution was analyzed using HPLC.

A short description of data set [2]: B-2: solubility of CoQ10 with GZK2 (HPLC). Particulars: 12 mg CoQ10 (as complex or alone) in 3 mL purified water, sonicated 1 hour. The method, then: 0 mg, 6.2 mg, 12.5 mg, 25 mg or 50 mg of GZK2 was mixed into 60 mg of CAVAMAX® W8 CoQ10 (containing 12 mg of CoQ10) as a super solubilizer and 3 mL purified water was added. The resulting mixture was then sonicated for 1 hour using an ultrasonic apparatus (Ikeda Scientific Co., Ltd.).
As a comparison, GZK2 was incorporated into 12 mg of CoQ10 as a super solubilizer and the mixture was prepared as described above. The resulting mixture was left to stand and filtered and the resulting solution was analyzed using HPLC.

A short description of data set [3]: B-1: solubility of CoQ10 with NaTC (HPLC). The following applies: 50 mM MES buffer, 2 hours at 40° C. On the procedure: 1450 μL each of a 50 mM 2-morpholinoethanesulfonic acid (MES) buffer solution (containing 300 mM NaCl, 140 mM KSCN and 5 mM CaCl2) or the aforementioned buffer solution into which a super solubilizer (0.42% (w/v) NaTC, 0.83% (w/v) NaTC or 1.66% (w/v) NaTC) was dissolved were added to 57 mg of CAVAMAX® W8 CoQ10 (5 mg water content, 12.14 mg CoQ10 and 40 mg γCD) and sonication was performed for several seconds using an ultrasonic apparatus (Ikeda Scientific Co., Ltd.) and left to stand for 2 hours at 40° C.
As a comparison, 2 mL of 50 mM 2-morpholinoethanesulfonic acid (MES) buffer solution (containing 300 mM NaCl, 140 mM KSCN and 5 mM CaCl2) (in lieu of NaTC) was added to 12.14 mg of CoQ10 (in lieu of CAVAMAX® W8 CoQ10), and the mixture was prepared as described above. The resulting mixture was left to stand and filtered and the resulting solution was analyzed using HPLC.

Data set [4] in a line: A-2: solubility of curcumin with GZ (HPLC). Particulars: 50 mM MES buffer, 2 hours at 40° C.
Data set [5] can be described thus: A-1 Preparation Method 1: solubility of curcumin with NaTC (HPLC). The following applies: 50 mM MES buffer, sonicated, 2 hours at 40° C., 0.2 μm filter. The method, then:
The mixture was then filtered and the solution obtained was analyzed via HPLC as described above.

The nature of data set [6]: A-8: solubility of curcumin with Na glycocholate (HPLC). Particulars: Amount of Na Glycocholate Added 2.0% (w/v); 2 mL water; filtered immediately following mixing.
Data set [7] can be described thus: Follow-up HPLC measurement of curcumin concentration in αCD aqueous solution comparable to Patent Document 2, Table 4. The method, then: Additionally, given that the maximum value of the concentration of the standard solution which was used as a reference was 100 μg/mL (Patent Document 2, Table 3), the concentration is outside the measurement range of the standard and is likely unreliable.

A short description of data set [8]: A-5: solubility of curcumin with polysorbate (HPLC). Particulars: Super Solubilizer: None (comparison); 1.4 mg curcumin in 2 mL ion-exchanged water. The method, then:
This mixture was then sonicated for several seconds using an ultrasonic apparatus (Ikeda Scientific Co., Ltd.) and left to stand for 10 min at 40° C.
(§1) The resulting mixture was left to stand and filtered and the resulting solution was analyzed using HPLC.

Data set [9] can be described thus: A-4: solubility of curcumin with quillaja saponin (HPLC). Particulars: total 2 mL 10% aqueous ethanol, 1 hour at 40° C. On the procedure:
The mixture was then allowed to stand, was filtered and the resulting solution was analyzed using HPLC.

A short description of data set [10]: A-6: solubility of curcumin with methylcellulose (HPLC). Particulars: Super Solubilizer: None (comparison); 1.4 mg curcumin in 2 mL ion-exchanged water. On the procedure: This mixture was then mixed by inversion.
as §1

Take `O=C(/C=C/c1ccc(O)c(O)c1)OCCc1ccccc1` [CAPE, caffeic acid phenethyl ester]: the “CAPE Concentration” value in [1] (NaTC concentration 0% (w/v)) is 16 µg/mL; in data set [1] (NaTC concentration 1.0% (w/v)) it was 155 µg/mL.

Take `COC1=C(OC)C(=O)C(C/C=C(\C)CC/C=C(\C)CC/C=C(\C)CC/C=C(\C)CC/C=C(\C)CC/C=C(\C)CC/C=C(\C)CC/C=C(\C)CC/C=C(\C)CCC=C(C)C)=C(C)C1=O` [CoQ10, coenzyme Q10]: the “CoQ10 Concentration” value came to 0.2 µg/mL in data set [2] (Amount of GZK2 Added 0 mg); 3.6 µg/mL in [2] (Amount of GZK2 Added 6.2 mg); 9.1 µg/mL in data set [2] (Amount of GZK2 Added 12.5 mg); 3.9 µg/mL in data set [2] (Amount of GZK2 Added 25 mg); 3.9 µg/mL in data set [2] (Amount of GZK2 Added 50 mg); 0 µg/mL in data set [3] (NaTC concentration 0% (w/v)). The “CoQ10 Concentration” value in data set [3] (NaTC concentration 0.42% (w/v)) turned out to be 0 µg/mL; in data set [3] (NaTC concentration 0.83% (w/v)) it was 0 µg/mL; in [3] (NaTC concentration 1.66% (w/v)), 1.52 µg/mL.

On to `COc1cc(/C=C/C(=O)CC(=O)/C=C/c2ccc(O)c(OC)c2)ccc1O` [Curcumin, curcumin], for which the “Curcumin Concentration” value in data set [4] (GZ Concentration 0% (w/v)) stood at 3.95 µg/mL; in [4] (GZ Concentration 3.50% (w/v)), 98.19 µg/mL; in [5] (NaTC concentration 0% (w/v)), 3.95 µg/mL; in [5] (NaTC concentration 0.83% (w/v)) it was 35.35 µg/mL; in data set [5] (NaTC concentration 1.66% (w/v)), 219.2 µg/mL; in data set [6], 12.31 µg/mL. Further, the “Curcumin Concentration” value in data set [8] is 0.01 µg/mL; in data set [9] (Amount of QS Added 0 μL) it was 0.02 µg/mL; in data set [9] (Amount of QS Added 200 μL), 16.81 µg/mL; in data set [9] (Amount of QS Added 1000 μL) it was 122.96 µg/mL; in [10], 0.01 µg/mL. Further, the concentration of curcumin in data set [7] (content of αCD 1%) was 1470 ng/mL; in [7] (content of αCD 2.5%), 3630 ng/mL; in [7] (content of αCD 5%) it was 8290 ng/mL.
